Test results: patent US5124157A, “Method and device for administering dexmedetomidine transdermally” (Cygnus Therapeutic Systems, priority 1989, dated 1992)
Entries after “also recorded” stand apart in the source; their conditions may differ.

How the values were obtained:
alpha-2 receptor = details: background, cited from earlier work; for activity/potency of the isomers (in words): isomers compared with each other
[1] = no data given; cited from earlier work
[2] = skin permeability, base versus salts (general statement); assay type: in vitro ADME; details: free base vs its salts; no data given

| Structure (SMILES) | activity/potency of the isomers (in words) (alpha-2 receptor) | clearance rate from the body (in words) [1] | skin permeability of base form relative to salts (in words) [2] | alpha-2 receptor agonist potency and selectivity (in words) (alpha-2 receptor) |
| --- | --- | --- | --- | --- |
| Cc1cccc([C@@H](C)c2cnc[nH]2)c1C [Preparation 1-isomer] | far less potent | – | – | – |
| Cc1cccc([C@H](C)c2cnc[nH]2)c1C [dexmedetomidine] | the active isomer | quite high; also recorded: relatively high | the skin is somewhat more permeable to the base form of the drug than its salts | – |
| Cc1cccc(C(C)c2cnc[nH]2)c1C (stereo not drawn) [Medetomidine, 4(5)-[alpha-methyl-2,3-dimethylbenzyl] imidazole] | – | – | – | potent and selective alpha-2 receptor agonist |
